How the values were obtained:
Experiment in all cases: Drug affinity chromatography with c-ponatinib and LC-MS/MS (ponatinib interactome)
Format in all cases: binding
[1] = target: T1, proteins of U2OS cell lysate (Homo sapiens, UniProt P49759); settings: CLK1, Dual specificity protein kinase CLK1
T1 construct: Proteins enriched by c-ponatinib from U2OS cell lysate; endogenous in cells; host or cells: U2OS cell lysate
Method in brief: (§1)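 Proteins were identified by nano-UPLC–MS/MS after elution with formic acid and trypsin digestion. They were captured from U2OS lysate (2 mg protein per pulldown, NP-40 buffer) on amine-coupled NHS beads during a 2 h incubation at 4 °C.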

[2] = target: T2, proteins of U2OS cell lysate (Homo sapiens, UniProt P02545); settings: LMNA, Prelamin-A/C;Lamin-A/C
T2 construct: Proteins enriched by c-ponatinib from U2OS cell lysate; endogenous in cells; host or cells: U2OS cell lysate
T2 sequence (P02545 whole entry): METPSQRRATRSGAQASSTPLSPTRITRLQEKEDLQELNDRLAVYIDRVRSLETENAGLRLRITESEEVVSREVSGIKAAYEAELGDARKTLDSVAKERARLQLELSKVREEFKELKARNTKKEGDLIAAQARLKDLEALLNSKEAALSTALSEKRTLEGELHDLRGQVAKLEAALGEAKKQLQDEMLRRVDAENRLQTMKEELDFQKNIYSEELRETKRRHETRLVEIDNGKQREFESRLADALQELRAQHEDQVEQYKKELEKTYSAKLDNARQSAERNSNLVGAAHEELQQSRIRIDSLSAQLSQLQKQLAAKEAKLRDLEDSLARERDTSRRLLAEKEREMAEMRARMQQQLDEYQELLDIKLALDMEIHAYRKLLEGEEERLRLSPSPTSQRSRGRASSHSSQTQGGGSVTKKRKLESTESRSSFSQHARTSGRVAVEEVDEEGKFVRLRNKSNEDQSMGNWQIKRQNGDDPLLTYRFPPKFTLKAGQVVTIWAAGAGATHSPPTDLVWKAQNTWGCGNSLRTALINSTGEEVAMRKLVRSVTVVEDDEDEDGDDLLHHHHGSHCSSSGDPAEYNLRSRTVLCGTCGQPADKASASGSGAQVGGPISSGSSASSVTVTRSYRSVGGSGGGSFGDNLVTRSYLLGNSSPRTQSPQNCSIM
Method in brief: as §1

[3] = target: T3, proteins of U2OS cell lysate (Homo sapiens, UniProt P22830); settings: FECH, Ferrochelatase, mitochondrial
T3 construct: Proteins enriched by c-ponatinib from U2OS cell lysate; endogenous in cells; host or cells: U2OS cell lysate
T3 sequence (P22830 55-423): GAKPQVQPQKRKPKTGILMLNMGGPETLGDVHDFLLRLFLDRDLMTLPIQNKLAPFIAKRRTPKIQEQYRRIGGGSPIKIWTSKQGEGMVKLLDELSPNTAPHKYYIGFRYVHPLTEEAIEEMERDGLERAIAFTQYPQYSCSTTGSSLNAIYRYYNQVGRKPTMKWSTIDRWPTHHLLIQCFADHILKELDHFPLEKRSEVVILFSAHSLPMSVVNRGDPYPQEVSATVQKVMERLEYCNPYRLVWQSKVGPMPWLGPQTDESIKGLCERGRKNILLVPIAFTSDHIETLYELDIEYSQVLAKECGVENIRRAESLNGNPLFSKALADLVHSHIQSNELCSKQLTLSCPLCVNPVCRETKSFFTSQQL
Method in brief: as §1

[4] = target: T4, proteins of U2OS cell lysate (Homo sapiens, UniProt Q9UMS4); settings: PRPF19, Pre-mRNA-processing factor 19
T4 construct: Proteins enriched by c-ponatinib from U2OS cell lysate; endogenous in cells; host or cells: U2OS cell lysate
Method in brief: as §1

[5] = target: T5, proteins of U2OS cell lysate (Homo sapiens, UniProt Q16531); settings: DDB1, DNA damage-binding protein 1
T5 construct: Proteins enriched by c-ponatinib from U2OS cell lysate; endogenous in cells; host or cells: U2OS cell lysate
Method in brief: as §1

[6] = target: T6, proteins of U2OS cell lysate (Homo sapiens, UniProt Q14680); settings: MELK, Maternal embryonic leucine zipper kinase
T6 construct: Proteins enriched by c-ponatinib from U2OS cell lysate; endogenous in cells; host or cells: U2OS cell lysate
Method in brief: as §1

[7] = target: T7, proteins of U2OS cell lysate (Homo sapiens, UniProt P0DMV9); settings: HSPA1B, Heat shock 70 kDa protein 1B
T7 construct: Proteins enriched by c-ponatinib from U2OS cell lysate; endogenous in cells; host or cells: U2OS cell lysate
Method in brief: as §1

[8] = target: T8, proteins of U2OS cell lysate (Homo sapiens, UniProt Q13011); settings: ECH1, Delta(3,5)-Delta(2,4)-dienoyl-CoA isomerase, mitochondrial
T8 construct: Proteins enriched by c-ponatinib from U2OS cell lysate; endogenous in cells; host or cells: U2OS cell lysate
Method in brief: as §1

[9] = target: T9, proteins of U2OS cell lysate (Homo sapiens, UniProt P05783); settings: KRT18, Keratin, type I cytoskeletal 18
T9 construct: Proteins enriched by c-ponatinib from U2OS cell lysate; endogenous in cells; host or cells: U2OS cell lysate
T9 sequence (P05783 whole entry): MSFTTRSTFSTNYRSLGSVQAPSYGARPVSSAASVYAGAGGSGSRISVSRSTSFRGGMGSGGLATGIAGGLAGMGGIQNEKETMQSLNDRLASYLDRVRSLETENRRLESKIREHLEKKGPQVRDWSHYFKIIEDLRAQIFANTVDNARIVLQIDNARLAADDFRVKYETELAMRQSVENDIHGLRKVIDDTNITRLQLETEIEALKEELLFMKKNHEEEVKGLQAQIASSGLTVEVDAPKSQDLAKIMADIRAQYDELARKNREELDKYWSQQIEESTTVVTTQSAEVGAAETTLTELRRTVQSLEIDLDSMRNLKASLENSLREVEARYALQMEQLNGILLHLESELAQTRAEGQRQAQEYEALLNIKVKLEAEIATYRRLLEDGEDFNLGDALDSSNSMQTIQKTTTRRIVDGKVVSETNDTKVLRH
Method in brief: as §1

[10] = target: T10, proteins of U2OS cell lysate (Homo sapiens, UniProt P57678); settings: GEMIN4, Gem-associated protein 4
T10 construct: Proteins enriched by c-ponatinib from U2OS cell lysate; endogenous in cells; host or cells: U2OS cell lysate
Method in brief: as §1

[11] = target: T11, proteins of U2OS cell lysate (Homo sapiens, UniProt P62241); settings: RPS8, 40S ribosomal protein S8
T11 construct: Proteins enriched by c-ponatinib from U2OS cell lysate; endogenous in cells; host or cells: U2OS cell lysate
Method in brief: as §1

[12] = target: T12, proteins of U2OS cell lysate (Homo sapiens, UniProt P40939); settings: HADHA, Trifunctional enzyme subunit alpha, mitochondrial
T12 construct: Proteins enriched by c-ponatinib from U2OS cell lysate; endogenous in cells; host or cells: U2OS cell lysate
T12 sequence (P40939 37-763): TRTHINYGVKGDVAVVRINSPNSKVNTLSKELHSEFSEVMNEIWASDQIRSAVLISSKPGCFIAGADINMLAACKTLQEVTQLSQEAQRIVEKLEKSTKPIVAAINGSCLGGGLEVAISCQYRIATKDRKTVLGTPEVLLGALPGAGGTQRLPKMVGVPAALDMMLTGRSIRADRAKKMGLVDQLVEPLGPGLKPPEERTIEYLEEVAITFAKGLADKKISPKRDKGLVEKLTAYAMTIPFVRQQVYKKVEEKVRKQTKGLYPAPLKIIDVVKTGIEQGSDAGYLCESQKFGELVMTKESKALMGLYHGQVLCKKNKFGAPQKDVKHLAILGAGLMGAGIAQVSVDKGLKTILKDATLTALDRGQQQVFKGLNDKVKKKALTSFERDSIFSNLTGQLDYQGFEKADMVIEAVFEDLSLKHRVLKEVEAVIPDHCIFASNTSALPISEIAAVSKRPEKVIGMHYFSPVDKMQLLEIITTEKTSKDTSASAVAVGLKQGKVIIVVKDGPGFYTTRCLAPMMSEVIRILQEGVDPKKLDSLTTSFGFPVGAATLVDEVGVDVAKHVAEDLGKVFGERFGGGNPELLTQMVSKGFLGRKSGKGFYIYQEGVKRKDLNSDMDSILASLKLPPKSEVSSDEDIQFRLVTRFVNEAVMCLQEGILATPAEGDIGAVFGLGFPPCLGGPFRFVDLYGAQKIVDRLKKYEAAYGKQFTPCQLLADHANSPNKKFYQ
Method in brief: as §1

[13] = target: T13, proteins of U2OS cell lysate (Homo sapiens, UniProt P62191); settings: PSMC1, 26S protease regulatory subunit 4
T13 construct: Proteins enriched by c-ponatinib from U2OS cell lysate; endogenous in cells; host or cells: U2OS cell lysate
Method in brief: as §1

[14] = target: T14, proteins of U2OS cell lysate (Homo sapiens, UniProt P38646); settings: HSPA9, Stress-70 protein, mitochondrial
T14 construct: Proteins enriched by c-ponatinib from U2OS cell lysate; endogenous in cells; host or cells: U2OS cell lysate
T14 sequence (P38646 47-679): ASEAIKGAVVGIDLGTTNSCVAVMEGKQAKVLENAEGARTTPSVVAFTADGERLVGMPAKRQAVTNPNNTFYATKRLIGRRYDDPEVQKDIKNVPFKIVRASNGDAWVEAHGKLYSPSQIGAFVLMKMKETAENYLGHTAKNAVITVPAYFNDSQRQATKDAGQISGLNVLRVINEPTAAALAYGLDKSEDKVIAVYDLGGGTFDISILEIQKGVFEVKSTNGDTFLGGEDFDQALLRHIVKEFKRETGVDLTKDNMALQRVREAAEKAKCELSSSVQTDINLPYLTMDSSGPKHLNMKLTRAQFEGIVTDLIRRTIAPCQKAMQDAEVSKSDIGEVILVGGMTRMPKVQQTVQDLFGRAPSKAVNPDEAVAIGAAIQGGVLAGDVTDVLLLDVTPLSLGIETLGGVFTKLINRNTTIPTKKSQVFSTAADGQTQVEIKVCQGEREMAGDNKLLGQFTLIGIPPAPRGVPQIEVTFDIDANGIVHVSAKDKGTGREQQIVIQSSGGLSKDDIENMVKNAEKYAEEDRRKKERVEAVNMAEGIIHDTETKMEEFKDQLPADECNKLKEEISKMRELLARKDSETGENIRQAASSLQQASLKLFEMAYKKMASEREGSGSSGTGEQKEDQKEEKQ
Method in brief: as §1

[15] = target: T15, proteins of U2OS cell lysate (Homo sapiens, UniProt Q9UJZ1); settings: STOML2, Stomatin-like protein 2, mitochondrial
T15 construct: Proteins enriched by c-ponatinib from U2OS cell lysate; endogenous in cells; host or cells: U2OS cell lysate
Method in brief: as §1

[16] = target: T16, proteins of U2OS cell lysate (Homo sapiens, UniProt Q6PJG6); settings: BRAT1, BRCA1-associated ATM activator 1
T16 construct: Proteins enriched by c-ponatinib from U2OS cell lysate; endogenous in cells; host or cells: U2OS cell lysate
T16 sequence (Q6PJG6 whole entry): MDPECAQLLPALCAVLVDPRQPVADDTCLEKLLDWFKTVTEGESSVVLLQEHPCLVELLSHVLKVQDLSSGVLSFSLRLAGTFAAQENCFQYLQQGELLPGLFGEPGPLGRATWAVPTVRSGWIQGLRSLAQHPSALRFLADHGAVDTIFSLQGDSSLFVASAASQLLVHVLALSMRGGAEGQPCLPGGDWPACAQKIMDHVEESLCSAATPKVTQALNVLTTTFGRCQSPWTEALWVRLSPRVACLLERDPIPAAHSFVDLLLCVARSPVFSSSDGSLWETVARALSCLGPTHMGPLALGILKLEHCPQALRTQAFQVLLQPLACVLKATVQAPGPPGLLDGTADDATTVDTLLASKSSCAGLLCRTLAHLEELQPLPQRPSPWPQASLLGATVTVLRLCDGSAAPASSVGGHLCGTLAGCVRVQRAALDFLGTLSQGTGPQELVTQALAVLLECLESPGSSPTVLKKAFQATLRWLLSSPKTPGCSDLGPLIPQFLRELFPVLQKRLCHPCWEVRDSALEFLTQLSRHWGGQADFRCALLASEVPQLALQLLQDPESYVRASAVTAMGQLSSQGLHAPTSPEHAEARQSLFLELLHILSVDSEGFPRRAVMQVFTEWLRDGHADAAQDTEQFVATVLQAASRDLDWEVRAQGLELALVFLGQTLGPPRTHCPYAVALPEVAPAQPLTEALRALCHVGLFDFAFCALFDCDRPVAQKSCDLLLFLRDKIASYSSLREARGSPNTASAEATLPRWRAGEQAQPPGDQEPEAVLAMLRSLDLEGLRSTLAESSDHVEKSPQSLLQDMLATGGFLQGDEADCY
Method in brief: as §1

[17] = target: T17, proteins of U2OS cell lysate (Homo sapiens, UniProt P56381); settings: ATP5E;ATP5EP2, ATP synthase subunit epsilon, mitochondrial
T17 construct: Proteins enriched by c-ponatinib from U2OS cell lysate; endogenous in cells; host or cells: U2OS cell lysate
T17 sequence (P56381 whole entry): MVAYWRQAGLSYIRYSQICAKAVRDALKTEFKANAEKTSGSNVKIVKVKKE
Method in brief: as §1

[18] = target: T18, proteins of U2OS cell lysate (Homo sapiens, UniProt P35659); settings: DEK, Protein DEK
T18 construct: Proteins enriched by c-ponatinib from U2OS cell lysate; endogenous in cells; host or cells: U2OS cell lysate
T18 sequence (P35659 whole entry): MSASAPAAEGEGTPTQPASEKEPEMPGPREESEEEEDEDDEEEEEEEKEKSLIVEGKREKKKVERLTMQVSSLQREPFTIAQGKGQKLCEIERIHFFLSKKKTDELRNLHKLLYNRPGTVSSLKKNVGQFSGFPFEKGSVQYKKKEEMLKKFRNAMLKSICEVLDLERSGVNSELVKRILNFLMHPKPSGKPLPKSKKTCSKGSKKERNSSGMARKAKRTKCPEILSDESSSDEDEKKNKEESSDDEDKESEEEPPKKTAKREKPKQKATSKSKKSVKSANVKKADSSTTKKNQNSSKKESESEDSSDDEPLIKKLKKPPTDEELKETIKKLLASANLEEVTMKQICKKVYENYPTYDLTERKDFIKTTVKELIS
Method in brief: as §1

[19] = target: T19, proteins of U2OS cell lysate (Homo sapiens, UniProt Q9UHB6); settings: captured protein LIMA1, Rank 120
T19 construct: Proteins enriched by c-ponatinib from U2OS cell lysate; endogenous in cells; host or cells: U2OS cell lysate
T19 sequence (Q9UHB6 whole entry): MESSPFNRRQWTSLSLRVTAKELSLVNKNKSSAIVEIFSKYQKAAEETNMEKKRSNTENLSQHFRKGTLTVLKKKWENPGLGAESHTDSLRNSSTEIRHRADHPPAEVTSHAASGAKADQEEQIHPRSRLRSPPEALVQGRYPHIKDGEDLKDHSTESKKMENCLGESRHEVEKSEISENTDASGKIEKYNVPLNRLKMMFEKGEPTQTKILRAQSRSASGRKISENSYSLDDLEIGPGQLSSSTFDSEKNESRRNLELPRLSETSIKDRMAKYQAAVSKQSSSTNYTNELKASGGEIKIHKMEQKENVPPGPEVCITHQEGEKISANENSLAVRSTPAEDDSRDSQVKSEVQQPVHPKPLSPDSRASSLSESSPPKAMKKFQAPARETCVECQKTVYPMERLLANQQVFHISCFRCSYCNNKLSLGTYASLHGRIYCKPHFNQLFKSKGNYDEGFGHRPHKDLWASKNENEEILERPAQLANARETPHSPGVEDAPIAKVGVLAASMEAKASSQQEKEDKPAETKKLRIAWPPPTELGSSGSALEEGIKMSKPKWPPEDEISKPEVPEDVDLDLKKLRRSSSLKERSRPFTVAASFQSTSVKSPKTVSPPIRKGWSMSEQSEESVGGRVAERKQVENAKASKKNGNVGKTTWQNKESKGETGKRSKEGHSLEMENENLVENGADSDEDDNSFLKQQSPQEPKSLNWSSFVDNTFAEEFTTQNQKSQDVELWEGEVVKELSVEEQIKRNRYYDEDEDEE
Method in brief: as §1

Row | Structure (SMILES) | Average LFQ PON_WT [1] | Average LFQ PON_WT [2] | Average LFQ PON_WT [3] | Average LFQ PON_WT [4] | Average LFQ PON_WT [5] | Average LFQ PON_WT [6] | Average LFQ PON_WT [7] | Average LFQ PON_WT [8] | Average LFQ PON_WT [9] | Average LFQ PON_WT [10] | Average LFQ PON_WT [11] | Average LFQ PON_WT [12] | Average LFQ PON_WT [13] | Average LFQ PON_WT [14] | Average LFQ PON_WT [15] | Average LFQ PON_WT [16] | Average LFQ PON_WT [17] | Average LFQ PON_WT [18] | Average LFQ intensity [19]
1 | Cc1ccc(C(=O)Nc2ccc(CN3CCN(C)CC3)c(C(F)(F)F)c2)cc1C#Cc1cnc2cccnn12 [PON] | 19.0546 | 23.7594 | 25.7972 | 21.24 | 20.7257 | 24.1941 | 24.1054 | 25.3624 | 23.283 | 20.1071 | 19.8524 | 23.258 | 23.3461 | 24.6608 | 26.1635 | 19.9568 | 23.9529 | 19.6049 | 
2 | Cc1ccc(C(=O)Nc2ccc(CN3CCN(CCCN)CC3)c(C(F)(F)F)c2)cc1C#Cc1cnc2cccnn12 [c-ponatinib, reference compound] |  |  |  |  |  |  |  |  |  |  |  |  |  |  |  |  |  |  | 23.0824
